Test results published in article PMC8579695, “The Stringent Response Inhibits 70S Ribosome Formation in Staphylococcus aureus by Impeding GTPase-Ribosome Interactions” (mBio, 2021).

Legend:
[1] = tested on: RA-GTPases RsgA, RbgA, Era, and HflX; experiment: Hydrolysis of pppGpp by the RA-GTPases; assay type: biochemical, Staphylococcus aureus
Source text: It is well characterized that rRNA transcription decreases during the stringent response ([39]). In addition, the GTPase activity of ribosome assembly cofactors is inhibited by (p)ppGpp, both of which contribute to a reduction in mature ribosomes within the cell ([27]). To examine mechanistically how (p)ppGpp-GTPase interactions affect the ability of RA-GTPases to associate with ribosomal subunits, we examined the association of each GTPase to either the 30S or 50S ribosomal subunit in the presence of GDP, GTP, ppGpp, and pppGpp, as well as GMPPNP, a nonhydrolyzable analogue of GTP. […] His-tagged GTPases were preincubated with highly pure, salt-washed 70S S. aureus ribosomes in a low-magnesium buffer to encourage ribosomal subunit dissociation, and the amount of each GTPase associated with each of the subunits was quantified by Western immunoblotting with anti-His antibodies after sucrose gradient separation. […]
GTPase activity assays were performed as previously described ([10]). […] The radioactive spots were exposed to a BAS-MS imaging plate (Fujifilm) and visualized using an LA 7000 Typhoon PhosphorImager (GE Healthcare), and images were quantified using ImageQuant (GE Healthcare).

[2] = tested on: HflX binding to 50S ribosomes; experiment: Stopped-flow fluorescence kinetics of HflX-Atto488 association to 50S subunits; design: species or system Staphylococcus aureus
Method: FIG 3 Stopped-flow kinetic parameters of RA-GTPase association to the ribosomal subunits. (A) Schematic representation of the experimental setup for stopped-flow analysis. Nucleotides (brown circles), 50S subunits (orange oval), and Atto488-labeled RA-GTPases (purple hexagon) are indicated. Arrows indicate the direction of syringe movement. Atto-488 was excited using a 470-nm LED, and fluorescence was detected through a 515-nm long-pass filter. (B and C) Fluorescent change upon mixing 0.2 μM RbgA-Atto488 (B) or HflX-Atto488 (C) with 0.2 μM 50S ribosomal subunits in the presence of 100 μM GTP, ppGpp, and pppGpp or in the apo state using the stopped-flow fluorescence apparatus. Fluorescently labeled protein was also mixed with buffer lacking 50S subunits as a mixing control. Fluorescence of the reaction was tracked using exponential sampling for 10 s, and each curve represents the mean average of at least five technical replicates. (D) kapp1 dependence on 50S concentration for HflX complexed with GTP (green), ppGpp (pink), and pppGpp (black). (E) Same as for panel D for the kapp2 dependence. (F and G) Sum and product analyses of apparent rates during HflX association to the 50S subunit. HflX-Atto488 (0.05 μM) was mixed with increasing titrations of 50S ribosomal subunits over the fluorescently labeled protein in the presence of 20 μM GTP or ppGpp. The resultant traces (see Fig. S4) were analyzed by nonlinear regression using two exponential terms. The sum (F) and product (G) of apparent rates (kapp1 [D] and kapp2 [E]) were plotted as a function of the total concentration of the 50S subunits and HflX protein to determine the microscopic constants k1, k-1, k2, and k-2 (Table 2) and the resulting dissociation constant (Kd) (see Materials and Methods). Error bars represent the standard deviations of the apparent rates of four or more individual traces (D and E) or the standard errors of the two-step analysis (F and G).
Next, we used a constant concentration of protein in the presence of 200-fold excess of each nucleotide and titrated it with increasing concentrations of ribosomal subunits (see Fig. S4). […]
For initial controls, 0.2 μM Atto-488-labeled proteins were rapidly mixed with 0.2 μM E. coli 50S ribosomal subunits (purified as described elsewhere) in TAKM7 buffer (25 mM Tris-HCl [pH 7.4], 70 mM ammonium acetate, 30 mM KCl, 7 mM MgCl2) using an SX20 stopped-flow apparatus (Applied Photophysics) in the presence or absence of GTP, ppGpp, and pppGpp. […] Atto-488 was excited using a 470-nm LED and fluorescence was detected through a 515-nm long-pass filter. Reactions were monitored for 10 s, with 1,000 total data points per reaction. Each condition was subject to at least five technical repeats, with curves representing the mean average fluorescence of the technical repeats. […]

Row | Structure (SMILES) | hydrolysis of pppGpp by the four RA-GTPases [1] | reduction of the second, slow-phase reaction of HflX relative to GTP-bound [2] | kapp2 of HflX association to 50S ([2]; GTP: hyperbolic, plateau, ppGpp: independent of 50S concentration)
1 | Nc1nc2c(ncn2[C@@H]2O[C@H](COP(=O)(O)OP(=O)(O)OP(=O)(O)O)[C@@H](OP(=O)(O)OP(=O)(O)O)[C@H]2O)c(=O)[nH]1 [pppGpp] | unable to hydrolyze | – | –
2 | Nc1nc2c(ncn2[C@@H]2O[C@H](COP(=O)(O)OP(=O)(O)O)[C@@H](OP(=O)(O)OP(=O)(O)O)[C@H]2O)c(=O)[nH]1 [ppGpp] | – | 4 fold | 1.0 s⁻¹
